Data on one compound can be found in patent publication US20070280915A1, “Combination Therapies Employing A Composition Comprising A Hmg Coa Reductase Inhibitor And A Vitamin B6 Related Compound” (priority 2003, published 2007).

A short description of series [1]: Effect of pyridoxal 5′-phosphate on fluorescence of the metabolic products of the CYP assays. The procedure:
Prior to performing the CYP inhibition assays, the effect of pyridoxal 5′-phosphate on the fluorescence of the metabolic products measured in the assays was evaluated. The fluorescence of metabolite (one concentration, in duplicate) was measured in the absence (0 μM) and presence of 0.457 to 1000 μM pyridoxal 5′-phosphate. The concentrations and metabolic products measured were: 1 μM 3-cyano-7-hydroxycoumarin (CHC), 2.5 μM 7-hydroxycoumarin (7-HC), 2.5 μM 7-hydroxy-4-trifluoromethylcoumarin (HFC), 0.1 μM fluorescein, 10 μM 3-[2-(N,N-diethylamino)ethyl]-7-hydroxy-4-methylcoumarin (AHMC) and 10 μM quinolinol. The concentration of metabolite used was based on the expected maximum concentration of metabolite formed in the CYP inhibition assay (i.e. the concentration of metabolite measured following incubation substrate with the CYP subtype in the absence of an inhibitor). CHC is the fluorescent metabolite measured in the CYP1A2 and CYP2C19 assays. 7-HC is the fluorescent metabolite measured in the CYP2A6 assay, HFC is the fluorescent metabolite measured in the CYP2B6, CYP2C9, CYP2E1 and CYP3A4 (BFC as substrate) assays and fluorescein is the metabolite measured in the CYP2C8 assay. AHMC is the metabolite measured in the CYP2D6 assay and quinolinol is measured in the CYP3A4 (BQ as substrate) assay. […]

Series [2] deals with patients who underwent percutaneous coronary intervention (PCI). Kind of series: Randomized double-blinded study of P5P vs placebo in high-risk percutaneous coronary intervention (PCI). In kind it is in vivo. The text has this: Inclusion criteria required prior determination for non-urgent PCI of a single-vessel lesion(s) and identification of ≧1 of the following clinical characteristics determining high risk for procedural-related ischemic complications (Califf R M, Abdelmeguid A E, Kuntz R E, Popma J J, Davidson C J, Cohen E A, Kleiman N S, Mahaffey K W, Topol E J, Pepine C J, et al. Myonecrosis after revascularization procedures. J Am Coll Cardiol 1998; 31:241-251; The ESPRIT Investigators. Novel dosing regimen of eptifibatide in planned coronary stent implantation: a randomised, placebo-controlled trial. Lancet 2000; 356:2037-2044): presence of an acute coronary syndrome (chest pain within 48 hours of PCI), recent AMI (≦7 days), diminished epicardial blood flow, angiographic thrombus, ejection fraction ≦30%, or vein graft lesion. In addition to any general contraindication to the PCI procedure or standard concomitant therapies, major exclusion criteria were creatine kinase (CK-MB) elevation above the upper limit of normal immediately before PCI, electrocardiographic evidence of atrial fibrillation or left bundle branch block, or evidence of any clinically significant abnormal laboratory finding (transaminases, bilirubin, or alkaline phosphatase >1.5 times the upper limit of normal or serum creatinine >1.8 mg/dl). Patients with elevated troponin measurements were permitted in the study provided that the peak troponin value was reported >24 hours before scheduled PCI, with documentation of a decreasing value before revascularization. […] Compliance and reasons for discontinued treatments were recorded for all patients.
Study end points and definitions—The primary objective of the study was to evaluate the feasibility of treatment with P5P as a cardioprotective agent in high-risk elective PCI. The primary end point of infarct size was evaluated by the trapezoidal rule (Press W H, Teukolsky S A, Vetterling W T, Flannery B P. Numerical Recipes. Cambridge, UK: Cambridge University Press, 1994:127-133.) using serial CK-MB enzyme measures performed at baseline and every 6 hours for 24 hours beginning immediately before initiation of PCI. The occurrence of myocardial ischemia within 24 hours after PCI was assessed as a secondary end point using continuous 12-lead electrocardiographic monitoring (Northeast Monitoring, Boston, Mass.). Evidence of periprocedural ischemia was defined as ST-segment depression of >100 μV within a 60-minute period of PCI, lasting ≧1 minute and separated from other episodes by 1 minute. Area under the curve ST-segment deviation was measured from the onset of the first to the last contrast injection. All cardiac markers and ST-segment monitoring data were analyzed by core laboratories blinded to treatment assignment (University of Maryland School of Medicine, Baltimore, Md.; Duke Ischemia Monitoring Laboratory, Durham, N.C.). Additional prespecified secondary end points included the 30-day composite and individual event rates of death; nonfatal infarction; new or worsening heart failure, or recurrent ischemia in addition to net clinical safety, which was defined as the absence of major adverse ischemic events; Thrombolysis In Myocardial Infarction (TIMI) major bleeding; and liver function or coagulation test abnormalities. Acute myocardial infarction (AMI) was defined as CK-MB elevation ≧3 times the upper limit of normal (upper limit of normal 7 ng/ml) and/or troponin T levels […] the upper limit of normal (upper limit of normal 0.1 ng/ml). If previous troponin (or CKMB) values were above the upper limit of normal, values were required to be 50% of the baseline measurement in addition to ≧2 times (≧3 times for CK-MB) the upper limit of normal to meet the definition of AMI. Routine chemistries, complete blood count, and coagulation assays were performed at baseline, 7 days, and 30 days after randomization. […]

Consider `Cc1ncc(COP(=O)(O)O)c(C=O)c1O` [P5P, pyridoxal-5-phosphate], for which the “concentration at which fluorescence of metabolites was significantly quenched” value in series [1] (metabolites CHC, 7-HC, 7-HFC, AHMC and quinolinol, 0.457 to 1000 μM tested) is over 37 µM. The “effect on the fluorescence of fluorescein” value in series [1] (up to 1000 μM, fluorescein is the CYP2C8 assay product) is “did not affect”. Besides, the “safety issues related to treatment” value in series [2] (60 patients in safety analyses) is “No safety issues”. Moreover, in series [2] (24 h continuous electrocardiographic ST-monitoring, median (interquartile range)), the “Area under the curve ST deviation” value is 1349 (951-2,263), μV-min. The “Any post-PCI ischemia” value in series [2] (24 h continuous electrocardiographic ST-monitoring, percent of patients) is on record as 14.7-34%. In series [2] (30 days), the deaths entry was “no deaths”. Also, the “occurrence of 30-day nonfatal AMI” value in series [2] (30 days, vs 10.0% with placebo, p=1.0) was found to be 12.8%. Besides, in series [2] (30 days, vs 15.0% with placebo, p=1.0), the “30-day composite adverse event rate (death, nonfatal AMI, new and/or worsening heart failure, or recurrent ischemia)” value turned out to be 17.9%. Also, the “abnormalities of routine chemistries or coagulation studies” value in series [2] (at 7 and 30 days, vs placebo) was “no apparent differences”. In series [2] (mean per therapy subgroup, with or without adjunctive statin), the “CK-MB max (mean)” value is 0.73 ng/mL. Also, in series [2] (median (interquartile range)), the “Time to peak CK-MB” value was 11.0 (0-18.0), 36 h. Besides, the “Area under the curve CK-MB” value in series [2] (median (interquartile range), P5P 10 mg/kg oral before PCI, then 5 mg/kg twice daily) is 1.1 (0.5-2.4), 39 ng/ml. Further, in series [2] (median (interquartile range), baseline to within 24 hours after PCI), the “Change in troponin T” value is 0 (0 = 0.7), 36 ng/ml. Further, the Periprocedural cardiac markers in series [2] (median (interquartile range), enteric-coated P5P 10 mg/kg oral before PCI, then 5 mg/kg twice daily 14 days) is recorded as 18.6 (10.2-34.5),. Besides, in series [2] (patients receiving P5P vs placebo), the “maximum periprocedural CK-MB level” value is given as “significantly lower”. In addition, the “need for blood product transfusion” value in series [2] (vs 10.00% placebo, p=0.26) is given as 2.5%. Further, in series [2] (vs 10.5% placebo, p=0.27), the “occurrence of major bleeding” value was found to be 2.8%. Besides, the “patients who discontinued drug therapy before completion of the prescribed 2 weeks” value in series [2] (vs 25.0% placebo, p=0.77) was determined as 30.8%. Besides, the “median periprocedural CK-MB area under the curve (periprocedural infarct size, primary end point)” value in series [2] (vs 32.9 with placebo, p=0.038) is 18.6 ng/mL.
